Measured values from EP1605976B1, “PHENYLCARBOXYL ACID AMIDES AND IK r CHANNEL INHIBITORS COMBINATION AND THE USE THEREOF FOR TREATING ATRIAL [sequence]” (Sanofi-Aventis Deutschland GmbH, priority 2003, dated 2004).
Several values for one entry are separate records, joined by “and”; a condition that tells them apart may be missing. Equal values may be shown once.

Experiments:
normalen Ziegen = assay: Atrial effective refractory period (AERP) in normal goats; format: in vivo; conditions: for atriale effektive Refraktärzeit (AERP): Nicht remodelliert, cycle length 400 ms, mean ± SD, Beispiel 1 3 mg/kg/h; for Verlängerung der AERP: normal atria
Method: (§1) An chronisch instrumentierten Ziegen wurden die elektrophysiologischen Effekte der Verbindung des Beispiels 1, des IKr-Kanalblockers Ibutilide und der Kombination von der Verbindung des Beispiels 1 und Ibutilide untersucht.
(§2) Nach Infusion von 0,9% Kochsalzlösung über 30 min zur Kontrolle wurden die Substanzen lbutilide und die Verbindung des Beispiels 1 zum einen in Monotherapie und zum anderen in Kombination der beiden Wirkstoffe an 7 normalen Ziegen (d. h. ohne induziertes Vorhofflimmem) durch intravenöse Infusion verabreicht und die atriale effektive Refraktärzeit (AERP) bestimmt. Bei der Monotherapie wurde über die Zeitdauer von 60 Minuten 0.12 mg Ibutilide pro kg Körpergewicht verabreicht (0.002 mg pro kg pro Minute). In der Kombination wurden über die Dauer von 120 Minuten 6 mg der Verbindung des Beispiels 1 pro kg Körpergewicht verabreicht (3mg pro kg pro Stunde), wobei nach 60 Minuten zusätzlich 0.12 mg Ibutilide pro kg pro Stunde für die Dauer von 60 Minuten verabreicht wurden. Die Infusion der Verbindung des Beispiels 1 wurde insgesamt über 120 min durchgeführt. Kontrollmessungen der atrialen effektiven Refraktärzeit wurden einmal vor Gabe des Ibutilides (Kontrolle 1) und einmal vor Gabe der Verbindung des Beispiels 1 (Kontrolle 2) durchgeführt.
Die Kombination beider Substanzen wurde getestet, indem wie oben beschrieben nach der Infusion der Verbindung des Beispiels 1 über eine Stunde zusätzlich Ibutilide verabreicht wurde.
as §2, with “Ein analoges Infusionsschema wurde an 5 weiteren Tieren mit Dofetilide anstelle von Ibutilide durchgeführt. Nach” for “Nach”, “Dofetilide” for “lbutilide”, “5” for “7”, “Vorhofflimmern)” for “Vorhofflimmem)”, “Dofetilide” for “Ibutilide”, “Dofetilids” for “Ibutilides”

[1] = system: Ziegen, mit remodellierten Vorhöfen; assay: Atrial effective refractory period (AERP) in goats with electrically remodelled atria; format: in vivo; conditions: for atriale effektive Refraktärzeit (AERP): Remodelliert (1-4 days induced AF), cycle length 400 ms, mean ± SD, Beispiel 1 3 mg/kg/h; for Verlängerung des AERP: remodelled atria
Method: as §1, §2
(§3) Das gleiche Infusionsschema wurde an denselben Tieren wiederholt, nachdem elektrische Remodellierung durch induziertes Vorhofflimmern von 1 bis 4 Tagen erzeugt wurde.
as §2, with “Ein analoges Infusionsschema wurde an 5 weiteren Tieren mit Dofetilide anstelle von Ibutilide durchgeführt. Nach” for “Nach”, “Dofetilide” for “lbutilide”, “5” for “7”, “Vorhofflimmern)” for “Vorhofflimmem)”, “Dofetilide” for “Ibutilide”, “Dofetilids” for “Ibutilides”
as §3

[2] = system: persistierendem Vorhofflimmern (AF); assay: Cardioversion in chronically fibrillating goats: time points of cardioversion (single goats); format: in vivo, Ziegen
Method: (§4) Es wurden Versuche an zwei Ziegen durchgeführt, die sich in persistierendem Vorhofflimmem von mehr als 45 Tagen befanden. Nach Infusion von 0,9% Kochsalzlösung über 30 min zur Kontrolle, wurde einer Ziege die Verbindung des Beispiels 1 der Reihe nach (jeweils im Abstand von Tagen) in Mengen von jeweils 0.0 (Kontrolle), 0.1, 0.3, 1, 3 und 10 mg pro kg Körpergewicht und pro Stunde über eine Dauer von 90 Minuten infundiert, wobei nach 60 Minuten zusätzlich 2 mg Ibutilide pro Kilogramm Körpergewicht in einem Zeitintervall von 30 min verabreicht wurde.
(§5) Analog wurden einer zweiten Ziege nach 60 Minuten Verabreichung verschiedener Mengen der Verbindung des Beispiels 1 (jeweils 0.0 (Kontrolle), 0.1, 0.3, 1, 3 und 10 mg pro kg Körpergewicht und pro Stunde jeweils im Abstand von Tagen) zusätzlich 10 µg Dofetilide pro kg Körpergewicht in einem Zeitintervall von 30 Minuten anstelle von Ibutilide verabreicht.
Die Zeitpunkte der Kardioversion von persistierendem Vorhofflimmem (AF) durch die Gabe der Verbindung des Beispiels 1 mit Ibutilide bzw. der Verbindung des Beispiels 1 mit Dofetilide sind in den Tabellen 3 und 4 bei verschiedenen Dosierungen der Verbindung des Beispiels 1 (0.0, 0.1, 0.3, 1,3 und 10 mg pro kg Körpergewicht und pro Stunde) dargestellt. Tabelle 3: Auftreten der Kardioversion von persistierendem Vorhofflimmern (AF) nach jeweiliger Reinduktion des Vorhofflimmerns bei verschiedenen Dosierungen der Verbindung des Beispiels 1 und bei zusätzlicher Infusion von Ibutilide nach 60 Minuten (Zeitpunkte in Minuten gemessen ab Beginn der Infusion der Verbindung des Beispiels 1)

[3] = system: persistierendem Vorhofflimmern (AF); assay: Atrial fibrillation cycle length (AFCL) in goats with persistent atrial fibrillation; format: in vivo, Ziegen
Method: as §4, §5
In Fig.1 und Fig.2 sind die Messungen der Zykluslänge des atrialen Flimmerns (AFCL) nach kombinierter Gabe von Ibutilide und der Verbindung des Beispiels 1 bzw. nach kombinierter Gabe von Dofetilide und der Verbindung des Beispiels 1 dargestellt. Die Messungen des AFCL und der Kardioversion erfolgten nebeneinander.
In den Zeichnungen wurden folgende Beschriftungen und Kennzeichnungen vorgenommen: • Fig.1: Messung der Zykluslänge des atrialen Flimmerns (AFCL) nach kombinierter Gabe von Ibutilide und der Verbindung des Beispiels 1 Y-Achse: AFCL in ms X-Achse: Zeit in Minuten Die Verbindung des Beispiels 1 wurde in folgenden Mengen infundiert: • 10 mg/kg/h • 3 mg/kg/h • 1 mg/kg/h • 0.3 mg/kg/h • 0.1 mg/kg/h • 0.0 mg/kg/h (Kontrolle) • Fig.2: Messung der Zykluslänge des atrialen Flimmerns (AFCL) nach kombinierter Gabe von Dofetilide und der Verbindung des Beispiels 1 Y-Achse: AFCL in ms X-Achse: Zeit in Minuten Die Verbindung des Beispiels 1 wurde in folgenden Mengen infundiert: • 10 mg/kg/h • 3 mg/kg/h • 1 mg/kg/h • 0.3 mg/kg/h • 0.1 mg/kg/h • 0.0 mg/kg/h (Kontrolle)

[4] = system: Ziegen mit persistierendem Vorhofflimmern (AF); assay: Efficiency of cardioversion in up to eight goats with persistent atrial fibrillation; format: in vivo
Method: In weiteren Versuchen wurde die Effizienz der Kardioversion bei verschiedenen Dosierungen der Verbindung des Beispiels 1 und bei zusätzlicher Infusion von Ibutilide (2 mg/kg) bzw. Dofetilide (10 µg/kg) an mehreren Ziegen getestet (Tabelle 5).
as §4, with “bis zu acht” for “zwei”, “Vorhofflimmern” for “Vorhofflimmem von mehr als 45 Tagen”, “Kontrolle wurden bis zu acht Ziegen” for “Kontrolle, wurde einer Ziege”, “1” for “1 der Reihe nach”
as §5, with “an bis zu acht Ziegen” for “einer zweiten Ziege”, “1,3” for “1, 3”
Die Effizienz der Kardioversion von persistierendem Vorhofflimmern (AF) durch die Gabe der Verbindung des Beispiels 1 mit ibutilide bzw. der Verbindung des Beispiels 1 mit Dofetilide sind in der Tabelle 5 bei verschiedenen Dosierungen der Verbindung des Beispiels 1 (0.0, 0.1, 0.3, 1, 3 und 10 mg pro kg Körpergewicht und pro Stunde) dargestellt. Angegeben sind die Anzahl der Ziegen, bei denen Kardioversion auftrat, im Vergleich zu der Anzahl der Ziegen, mit denen der Versuch durchgeführt wurde, und daraus errechnet die Effizienz der Kardioversion in Prozent. Jede Terminierung des persistenten Vorhofflimmerns während einer jeweiligen Infusionsperiode wurde als eine erfolgreiche Kardioversion angesehen. […] Tabelle 5: Effizienz der Kardioversion in Prozent bei Ziegen mit persistierendem Vorhofflimmern (AF) bei verschiedenen Dosierungen der Verbindung des Beispiels 1 und bei zusätzlicher Infusion von Ibutilide bzw. Dofetilide. In Klammern angegeben ist jeweils das Verhältnis Ziegen, bei denen Kardioversion auftrat, zu Ziegen, die bei dem jeweiligen Versuch eingesetzt wurden.

[5] = 5 goats, i.v. infusion: Dofetilide 0.12 mg/kg over 60 min
[6] = n=5, versus control before dosing (151 ms and 158 ms), Dofetilide study
[7] = n=5, versus control (94 ms and 93 ms), Dofetilide study
[8] = Beispiel 1 dose 0, Ibutilide 2mg/kg or Dofetilide 10µg/kg alone
[9] = 7 goats, i.v. infusion: Ibutilide 0.12 mg/kg over 60 min
[10] = n=7, versus control before dosing (159 ms and 162 ms), Ibutilide study
[11] = n=7, versus control (93 ms and 97 ms), Ibutilide study
[12] = Fig.1 goat, Ibutilide 2 mg/kg per 30 min given after 60 min (alone: from 94 ms baseline), Beispiel 1 3 mg/kg/h
[13] = Beispiel 1 dose 0,1, alone or + Ibutilide 2mg/kg or + Dofetilide 10µg/kg
[14] = Beispiel 1 dose 0,3, alone or + Ibutilide 2mg/kg or + Dofetilide 10µg/kg
[15] = Beispiel 1 dose 1, alone or + Ibutilide 2mg/kg or + Dofetilide 10µg/kg
[16] = Beispiel 1 dose 10, alone or + Ibutilide 2mg/kg or + Dofetilide 10µg/kg

| Compound | atriale effektive Refraktärzeit (AERP) (normalen Ziegen; [5]) [ms] | Verlängerung der AERP (normalen Ziegen; [6]) [ms] | atriale effektive Refraktärzeit (AERP) [1, 5] [ms] | Verlängerung des AERP [1, 7] [ms] | Effizienz der Cardioversion [4, 8] [%] | Verhältnis Ziegen, bei denen Kardioversion auftrat, zu Ziegen, die eingesetzt wurden [4, 8] | atriale effektive Refraktärzeit (AERP) (normalen Ziegen; [9]) [ms] | Verlängerung der AERP (normalen Ziegen; [10]) [ms] | atriale effektive Refraktärzeit (AERP) [1, 9] [ms] | Verlängerung des AERP [1, 11] [ms] | AFCL [3, 12] [ms] | other results |
| --- | --- | --- | --- | --- | --- | --- | --- | --- | --- | --- | --- | --- |
| CN(CCOc1ccc(NS(C)(=O)=O)cc1)CCc1ccc(NS(C)(=O)=O)cc1 [Dofetilide, reference compound] | 172 ± 11 | 21 | 101 ± 19 | 7 | 25 | (1/4) |  |  |  |  |  | Kardioversion ([2]; 10 µg/kg Dofetilide over 30 min without Beispiel 1, goat of Tabelle 4): eine Kardioversion nicht eintritt; Anstieg der AFCL ([3]; Fig.2 goat, 10 µg/kg Dofetilide over 30 min without Beispiel 1): 14 ms; AFCL ([3]; Fig.2 goat, 10 µg/kg Dofetilide over 30 min without Beispiel 1, from 92 ms baseline): 106 ms |
| COc1ccc(CC(=O)NCc2ccccc2-c2ccccc2C(=O)NCCc2cccnc2)cc1 [Beispiel 1, 2'-{[2-(4-Methoxy-phenyl)-acetylamino]-methyl}-biphenyl-2-carbonsäure-(2-pyridin-3-yl-ethyl)-amid] | 209 ± 29 | 51 | 164 ± 19 | 71 |  |  | 206 ± 26 | 44 | 160 ± 16 | 63 | 147 | Zeitpunkte der Kardioversion ([2]; Beispiel 1 10mg/kg/h, time points before the start of Ibutilide at 60 min (monotherapy), one goat, listed as Verbindung des Beispiels 1, 10 mg/kg): 42.00 Minuten and 50.00 Minuten; Kardioversion ([2]; Beispiel 1 alone at 0.1, 0.3, 1, 3 or 10 mg/kg/h, goat of Tabelle 4): nicht zur Kardioversion; Kardioversion ([2]; monotherapy, only at 10 mg/kg/h, goat of Tabelle 3): möglich, eine Kardioversion herbeizuführen; AFCL ([3]; Fig.2 goat, Beispiel 1 alone at 0.1, 0.3, 1, 3 or 10 mg/kg/h): dosisabhängigen Zunahme der AFCL; Effizienz der Cardioversion [4, 13]: 17%; Verhältnis Ziegen, bei denen Kardioversion auftrat, zu Ziegen, die eingesetzt wurden [4, 13]: (1/6); Effizienz der Cardioversion [4, 14]: 17%; Verhältnis Ziegen, bei denen Kardioversion auftrat, zu Ziegen, die eingesetzt wurden [4, 14]: (1/6); Effizienz der Cardioversion [4, 15]: 13%; Verhältnis Ziegen, bei denen Kardioversion auftrat, zu Ziegen, die eingesetzt wurden [4, 15]: (1/8); Effizienz der Cardioversion ([4]; Beispiel 1 dose 3, alone or + Ibutilide 2mg/kg or + Dofetilide 10µg/kg): 38%; Verhältnis Ziegen, bei denen Kardioversion auftrat, zu Ziegen, die eingesetzt wurden ([4]; Beispiel 1 dose 3, alone or + Ibutilide 2mg/kg or + Dofetilide 10µg/kg, listed as Verbindung des Beispiels 1): 3 von 8 and (3/8); Effizienz der Cardioversion [4, 16]: 63%; Verhältnis Ziegen, bei denen Kardioversion auftrat, zu Ziegen, die eingesetzt wurden [4, 16]: (5/8) |
| CCCCCCCN(CC)CCCC(O)c1ccc(NS(C)(=O)=O)cc1 (stereo not drawn) [Ibutilide, reference compound] |  |  |  |  | 29 | (2/7) | 185 ± 23 | 26 | 98 ± 20 | 5 | 101 |  |
